Laboratory results reported in ChEMBL document CHEMBL1124283, “1,4-Dihydropyridine antagonist activities at the calcium channel: a quantitative structure-activity relationship approach” (J Med Chem, 1988).

Experiments:
[1] = organism: Cavia porcellus; experiment: Effective concentration required to produce mechanical response determined in muscle strips of guinea pig; type: functional; details: Muscle tissue, read-out: Log 1/EC50 (converted)
[2] = Compound was tested for its antagonist activity against calcium channel; type: functional, Homo sapiens

| SMILES | EC50 [1] [µM] | Log 1/IC50 [2] |
| --- | --- | --- |
| COC(=O)C1=C(C)N=C(C)/C(=C(\O)OC)C1c1cc([N+](=O)[O-])ccc1Cl (stereo not drawn) | 0.0302 | – |
| COC(=O)C1=C(C)N=C(C)/C(=C(\O)OC)C1c1cc(OC)c(OC)cc1OC (stereo not drawn) | 1000 | – |
| COC(=O)C1=C(C)N=C(C)/C(=C(\O)OC)C1c1cccc(OC(=O)c2ccccc2)c1 (stereo not drawn) | 6.31 | – |
| COC(=O)C1=C(C)N=C(C)/C(=C(\O)OC)C1c1cc([N+](=O)[O-])ccc1O (stereo not drawn) | 0.1 | – |
| COC(=O)C1=C(C)N=C(C)/C(=C(\O)OC)C1c1ccccc1C (stereo not drawn) | 0.00603 | 8.71 |
| COC(=O)C1=C(C)N=C(C)/C(=C(\O)OC)C1c1cccc(Cl)c1Cl (stereo not drawn) | 0.0191 | – |
| COC(=O)C1=C(C)N=C(C)/C(=C(\O)OC)C1c1ccccc1Br (stereo not drawn) | 0.00759 | 10.49 |
| C=Cc1ccccc1C1C(C(=O)OC)=C(C)N=C(C)/C1=C(\O)OC (stereo not drawn) | 0.00447 | – |
| COC(=O)C1=C(C)N=C(C)/C(=C(\O)OC)C1c1cccc(N(C)C)c1 (stereo not drawn) | 0.891 | – |
| COC(=O)C1=C(C)NC(C)=C(C(=O)OC)C1c1ccccc1[N+](=O)[O-] [NIFEDIPINE] | 0.00513 | 9.08 |
| COC(=O)C1=C(C)N=C(C)/C(=C(/O)OC)C1c1c(F)cccc1Cl (stereo not drawn) | 0.00759 | 8.37 |
| COC(=O)C1=C(C)NC(C)=C(C(=O)OC)C1c1ccccc1 | 0.0282 | 7.85 |
| COC(=O)C1=C(C)N=C(C)/C(=C(\O)OC)C1c1cccc(OC(C)=O)c1 (stereo not drawn) | 6.03 | – |
| COC(=O)C1=C(C)N=C(C)/C(=C(\O)OC)C1c1c(F)c(F)c(F)c(F)c1F (stereo not drawn) | 0.00437 | 10.37 |
| COC(=O)C1=C(C)N=C(C)/C(=C(\O)OC)C1c1ccccc1N (stereo not drawn) | 39.8 | – |
| COC(=O)C1=C(C)N=C(C)/C(=C(\O)OC)C1c1cccc(N=[N+]=[N-])c1 (stereo not drawn) | – | 8.67 |
| CCc1ccccc1C1C(C(=O)OC)=C(C)N=C(C)/C1=C(\O)OC (stereo not drawn) | 0.00646 | – |
| COC(=O)C1=C(C)NC(C)=C(C(=O)OC)C1c1ccc(N(C)C)cc1 | 100 | – |
| COC(=O)C1=C(C)N=C(C)/C(=C(\O)OC)C1c1ccccc1C#N (stereo not drawn) | 0.0158 | 9.18 |
| COC(=O)C1=C(C)N=C(C)/C(=C(\O)OC)C1c1ccccc1C(F)(F)F (stereo not drawn) | 0.00151 | – |
| COC(=O)C1=C(C)N=C(C)/C(=C(\O)OC)C1c1ccccc1OC (stereo not drawn) | 0.0575 | 7.87 |
| COC(=O)C1=C(C)N=C(C)/C(=C(\O)OC)C1c1ccccc1I (stereo not drawn) | 0.0468 | 10.8 |
| COC(=O)C1=C(C)N=C(C)/C(=C(\O)OC)C1c1cc(C)ccc1C (stereo not drawn) | 0.1 | – |
| COC(=O)C1=C(C)N=C(C)/C(=C(\O)OC)C1c1cc(Cl)cc(Cl)c1 (stereo not drawn) | 0.0933 | – |
| CCOc1ccccc1C1C(C(=O)OC)=C(C)N=C(C)/C1=C(\O)OC (stereo not drawn) | 0.11 | – |
| COC(=O)C1=C(C)N=C(C)/C(=C(\O)OC)C1c1ccccc1Cl (stereo not drawn) | 0.00219 | 9.78 |
| COC(=O)C1=C(C)N=C(C)/C(=C(\O)OC)C1c1c(Cl)cccc1Cl (stereo not drawn) | 0.00191 | – |

Continued, values first:

| EC50 [1] [µM] | Log 1/IC50 [2] | SMILES |
| --- | --- | --- |
| 22.9 | – | COC(=O)C1=C(C)N=C(C)/C(=C(\O)OC)C1c1ccc(I)cc1 (stereo not drawn) |
| – | 7.18 | COC(=O)C1=C(C)N=C(C)/C(=C(\O)OC)C1c1ccc(C)cc1 (stereo not drawn) |
| 1 | – | COC(=O)C1=C(C)N=C(C)/C(=C(\O)OC)C1c1cccc(O)c1 (stereo not drawn) |
| 2 | – | COC(=O)C1=C(C)N=C(C)/C(=C(\O)OC)C1c1cccc(N)c1 (stereo not drawn) |
| 0.0158 | 9.3 | COC(=O)C1=C(C)N=C(C)/C(=C(/O)OC)C1c1cccc(Cl)c1 (stereo not drawn) |
| 0.0741 | – | COC(=O)C1=C(C)N=C(C)/C(=C(\O)OC)C1c1cccc(C(F)(F)F)c1 (stereo not drawn) |
| 3.47 | – | COC(=O)C1=C(C)N=C(C)/C(=C(\O)OC)C1c1ccc(C#N)cc1 (stereo not drawn) |
| 0.0417 | – | COC(=O)C1=C(C)N=C(C)/C(=C(\O)OC)C1c1cccc(I)c1 (stereo not drawn) |
| 0.00129 | – | COC(=O)C1=C(C)N=C(C)/C(=C(\O)OC)C1c1cccc(Br)c1 (stereo not drawn) |
| 0.0347 | 8.68 | COC(=O)C1=C(C)N=C(C)/C(=C(\O)OC)C1c1cccc(C#N)c1 (stereo not drawn) |
| 8.13 | 6.22 | COC(=O)C1=C(C)N=C(C)/C(=C(\O)OC)C1c1ccc(Cl)cc1 (stereo not drawn) |
| 0.129 | 7.46 | COC(=O)C1=C(C)N=C(C)/C(=C(\O)OC)C1c1ccc(F)cc1 (stereo not drawn) |
| 50.1 | < 5 | COC(=O)C1=C(C)N=C(C)/C(=C(\O)OC)C1c1cccc([N+](C)(C)C)c1 (stereo not drawn) |
| 0.0209 | 8.49 | COC(=O)C1=C(C)N=C(C)/C(=C(\O)OC)C1c1cccc(F)c1 (stereo not drawn) |
| 0.0427 | 8.44 | COC(=O)C1=C(C)N=C(C)/C(=C(\O)OC)C1c1ccccc1F (stereo not drawn) |
| 0.11 | 7.28 | COC(=O)C1=C(C)N=C(C)/C(=C(\O)OC)C1c1cccc(C)c1 (stereo not drawn) |
| 0.191 | 7.27 | COC(=O)C1=C(C)N=C(C)/C(=C(\O)OC)C1c1cccc(OC)c1 (stereo not drawn) |
